Assay results as given in patent US6627630B1, “Condensed pyridazine derivatives, their production and use” (Takeda Chemical Industries, Ltd., priority 1998, dated 2003).
Structures can show the parent of a compound that is named as a salt.

Columns and labels:
[1] = test system: histamine-induced skin reactions; test: Effect on histamine-induced skin reactions in guinea pigs; type: in vivo, guinea pig; conditions: 1 hour before intradermal histamine
Method: Effect on Histamine-induced Skin Reactions in Guinea Pigs
(§1) Male Hartley guinea pigs weighing about 500 g were used. After the dorsal hair was shaved under ether anesthesia, 1 ml of a 2.5% pontamine sky blue solution was injected intravenously administered, and then 0.1 ml of histamine at 3 μg/ml was injected intradermally into 2 sites (left and right) in the back. Thirty minutes after the injection of histamine, animals were killed by bleeding and the skin was removed. Two perpendicular diameters (mm) of each blue spot on the inside of the skin were measured and multiplied; the mean for the two products was taken as the microvascular permeability index. Test compounds were suspended in a 5% gum arabic solution and orally administered in a volume of 0.2 ml/100 g body weight 1 hour before histamine administration. Animals in the control group received the same volume of a 5% gum arabic solution. The suppression rate of the sample for the title reaction was calculated using Equation 1.
Inhibition (%) of histamine-induced skin reactions=100×(1−vascular permeability index in the presence of drug/vascular permeability index in control group) Equation 1
as §1, with “bleeding and he skin was” for “bleeding and the skin was”, “measured and multiplied, the mean” for “measured and multiplied; the mean”

| Structure (SMILES) | melting point | further results |
| --- | --- | --- |
| CC(C)(C(=O)O)c1cn2nc(OCCCN3CCC(OC(c4ccccc4)c4ccccc4)CC3)ccc2n1 [Example 45A] |  | Inhibition (%) of Histamine-induced Skin Reactions, 3 mg/kg Oral Administration ([1]; Table 1): 91% |
| CC(C)(C(=O)O)c1cn2nc(NCCCN3CCC(OC(c4ccccc4)c4ccccc4)CC3)ccc2n1.O.O [Example 135A, 2-[6-[3-[4-(Diphenylmethoxy)piperidino]propylamino]imidazo[1,2-b]pyridazin-2-yl)-2-methylpropionic Acid Dihydrate] |  | Inhibition (%) of Histamine-induced Skin Reactions, 3 mg/kg Oral Administration ([1]; Table 1): 91%; Inhibition (%) of Histamine-induced Skin Reactions, 3 mg/kg Oral Administration ([1]; Table 3): 91% |
| O=C(CCN1CCC(OC(c2ccccc2)c2ccccc2)CC1)Nc1ccc2ncnn2n1 [Example 18A] |  | Inhibition (%) of Histamine-induced Skin Reactions, 3 mg/kg Oral Administration ([1]; Table 1): 91% |
| CC(C)OC(=O)c1nc2ccc(OCCCN3CCC(OC(c4ccccc4)c4ccccc4)CC3)nn2n1 [Example 122A, Isopropyl[6-[3-[4-(Diphenylmethoxy)piperidino]propoxy][1,2,4]triazolo[1,5-b]pyridazin-2-yl]carboxylate] | 126 to 127 °C |  |
| CC(C)(C(=O)O)c1cn2nc(NCCN3CCC(OC(c4ccccc4)c4ccccc4)CC3)ccc2n1 [Example 79A, 2-[6-[2-[4-(Diphenylmethoxy)piperidino]ethylamino]imidazo[1,2-b]pyridazin-2-yl]-2-methylpropionic Acid] | 194 to 198 °C |  |
| CC(C)(C(=O)O)c1cn2nc(NCCCN3CCC(OC(c4ccccc4)c4ccccc4)CC3)ccc2n1 [Example 43A, 2-[6-[3-[4-(Diphenylmethoxy)piperidino]propylamino]imidazo[1,2-b]pyridazin-2-yl]-2-methylpropionic Acid] | 205 to 206 °C |  |
| CCOC(=O)CCNC(=O)c1cn2nc(NCCCN3CCC(OC(c4ccccc4)c4ccccc4)CC3)ccc2n1 [Example 112A, N-[6-[3-[4-(Diphenylmethoxy)piperidino]propylamino]imidazo[1,2-b]pyridazine-2-carbonyl]-β-alanine Ethyl Ester] | 83 to 86 °C |  |
| O=C(OCCOc1ccc2ncnn2n1)N1CCC(OC(c2ccccc2)c2ccccc2)CC1 [Example 25A, 6-[2-[4-(Diphenylmethoxy)piperidinocarbonyloxy]ethoxy][1,2,4]triazolo[1,5-b]pyridazine] | 75 to 76 °C |  |
| CCOC(=O)C(C)(C)c1cn2nc(NCCCN3CCC(NC(c4ccccc4)c4ccccc4)CC3)ccc2n1 [Example 108A, Ethyl 2-[6-[3-[4-(Diphenylmethylamino)piperidino]propylamino]imidazo[1,2-b]pyridazin-2-yl]-2-methylpropionate] | 115 to 117 °C |  |
| c1ccc(C(c2ccccc2)N2CCN(CCCCCCNc3ccc4ncnn4n3)CC2)cc1 [Example 37A, 6-[6-[4-(Diphenylmethyl)-1-piperazinyl]hexylamino][1,2,4]triazolo[1,5-b]pyridazine] | 130 to 132 °C |  |
| CC(C)(C(=O)O)c1cn2nc(NCCCN3CCC(OC(c4ccccc4)c4ccccc4)CC3)ccc2n1.O.O (hydrate or solvate) [Example 135A, 2-[6-[3-[4-(Diphenylmethoxy)piperidino]propylamino]imidazo[1,2-b]pyridazin-2-yl)-2-methylpropionic Acid Dihydrate] | 203 to 205 °C |  |
| O=C(CCN1CCN(C(c2ccccc2)c2ccccc2)CC1)Nc1ccc2ncnn2n1 [Example 19A, 3-[4-(Diphenylmethyl)-1-piperazinyl]-N-([1,2,4]triazolo[1,5-b]pyridazin-6-yl)propionamide] | 176 to 177 °C |  |
| CC(C)(C(=O)O)c1nc2ccc(OCCCN3CCN(C(c4ccccc4)c4ccccc4)CC3)nn2c1Cl [Example 88A, 2-[3-Chloro-6-[3-[4-(diphenylmethyl)-1-piperazinyl]propoxy]imidazo[1,2-b]pyridazin-2-yl]-2-methylpropionic Acid] | 118 to 121 °C |  |
| CCOC(=O)C(C)(C)c1cn2nc(CCCCN3CCN(C(c4ccccc4)c4ccccc4)CC3)ccc2n1 [Example 94A, Ethyl 2-[6-[4-[4-(Diphenylmethyl)-1-piperazinyl]butyl]imidazo[1,2-b]pyridazin-2-yl]-2-methylpropionate] | 105 to 106 °C |  |
| CC(C)c1cc2ncnn2nc1SCCOCCN1CCN(C(c2ccccc2)c2ccccc2)CC1 (as salt: hydrochloride) [Example 59A, 6-[2-[2-[4-(Diphenylmethyl)-1-piperazinyl]ethoxy]ethylthio]-7-isopropyl[1,2,4]triazolo[1,5-b]pyridazine Dihydrochloride] | 143 to 145 °C |  |
| COc1cn2nc(OCCCN3CCN(C(c4ccccc4)c4ccccc4)CC3)ccc2n1 [Example 42A, 6-[3-[4-(Diphenylmethyl)-1-piperazinyl]propoxy]-2-methoxyimidazo[1,2-b]pyridazine] | 144 to 146 °C |  |
| O=C(OCCCOc1ccc2ncnn2n1)C1CC(OC(c2ccccc2)c2ccccc2)CCN1 (stereo not drawn) [Example 27A, 6-[3-[4-(Diphenylmethoxy)piperidino-carbonyloxy]propoxy][1,2,4]triazolo[1,5-b]pyridazine] | 119 to 120 °C |  |
| CCOC(=O)CNC(=O)c1nc2ccc(NCCCN3CCC(OC(c4ccccc4)c4ccccc4)CC3)nn2c1C [Example 127A, N-[6-[3-[4-(Diphenylmethoxy)piperidino]propylamino]-3-methylimidazo[1,2-b]pyridazine-2-carbonyl]glycine Ethyl Ester] | 158 to 160 °C |  |

The next lines start with results.

| melting point | Structure (SMILES) | further results |
| --- | --- | --- |
| 256 to 258 °C | O=C(O)CNC(=O)c1nc2ccc(NCCCN3CCC(OC(c4ccccc4)c4ccccc4)CC3)nn2n1 [Example 125A, N-[6-[3-[4-(Diphenylmethoxy)piperidino]propylamino][1,2,4]triazolo[1,5-b]pyridazine-2-carbonyl]glycine] |  |
| 207 to 209 °C | O=C(O)c1cc2ncnn2nc1NCCCN1CCC(OC(c2ccccc2)c2ccccc2)CC1 [Example 119A, [6-[3-[4-(Diphenylmethoxy)piperidino]propylamino][1,2,4]triazolo[1,5-b]pyridazin-7-yl]carboxylic Acid] |  |
| 152 to 154 °C | c1ccc(C(OC2CCN(CCNc3ccc4ncnn4n3)CC2)c2ccccc2)cc1 [Example 13A, 6-[2-[4-(Diphenylmethoxy)piperidino]ethylamino][1,2,4]triazolo[1,5-b]pyridazine] |  |
| 133 to 135 °C | CC(C)(C)OC(=O)c1nc2ccc(NCCCN3CCC(OC(c4ccccc4)c4ccccc4)CC3)nn2n1 [Example 116A, tert-Butyl[6-[3-[4-(Diphenylmethoxy)piperidino]propylamino][1,2,4]triazolo[1,5-b]pyridazin-2-yl]carboxylate] |  |
| 120 to 122 °C | COC(=O)c1cc2ncnn2nc1NCCCN1CCC(OC(c2ccccc2)c2ccccc2)CC1 [Example 118A, Methyl[6-[3-[4-(Diphenylmethoxy)piperidino]propylamino][1,2,4]triazolo[1,5-b]pyridazin-7-yl]carboxylate] |  |
| 219 to 220 °C | Cc1c(C(C)(C)C(=O)O)nc2ccc(NCCCN3CCC(OC(c4ccccc4)c4ccccc4)CC3)nn12 [Example 138A, 2-[6-[3-[4-(Diphenylmethoxy)piperidino]propylamino]-3-methylimidazo[1,2-b]pyridazin-2-yl]-2-methylpropionic Acid] |  |
| 119 to 120 °C | Cc1nc2ccc(NCCCN3CCC(OC(c4ccccc4)c4ccccc4)CC3)nn2n1 [Example 20A, 6-[3-[4-(Diphenylmethoxy)piperidino]propylamino]-2-methyl[1,2,4]triazolo[1,5-b]pyridazine] |  |
| 133 to 135 °C | CC(C)(C)c1cc2ncnn2nc1OCCN1CCC(OC(c2ccccc2)c2ccccc2)CC1 [Example 15A, 7-t-Butyl-6-[2-[4-(Diphenylmethoxy)piperidino]ethoxy][1,2,4]triazolo[1,5-b]pyridazine] |  |
